SMILES strings stand for the structures.

Series [1] can be described thus: Cytotoxicity against BALB/C Mus musculus (mouse) lymph node cells after 24 hr by MTT assay. In kind it is cell-based. On the technique in general: Tetrazolium dyes change colour on reduction, which living cells bring about.
Series [2] is described as follows: Selectivity index, ratio of CC50 for BALB/C Mus musculus (mouse) lymph node cells to IC50 for conA-induced BALB/C lymph node cells. In kind it is functional.
A short description of series [3]: Immunosuppressive activity in BALB/C Mus musculus (mouse) lymph node cells assessed as inhibition of conA-induced proliferation incubated at 24 hr post conA-challenge measured after 72 hr by MTT assay. The class given is functional.
In series [4] the target is Phosphatidylinositol 4,5-bisphosphate 3-kinase catalytic subunit gamma isoform (Homo sapiens, UniProt P48736). As to the kind of experiment: Inhibition of PI3Kgamma (unknown origin) using [33gammaP]ATP and phosphotidylinositol as substrate by scintillation proximity assay. In general terms: Scintillation proximity formats need no separation of bound from free tracer.
For series [5], the species on record is Mus musculus. As to the kind of experiment: Induction of apoptosis in ConA-induced BALB/C Mus musculus (mouse) lymph node cells assessed as caspase3 activation after 24 hr by Western blot analysis. The class given is functional. On the technique in general: In western blotting, separated proteins are transferred to a membrane and probed.
For series [6], the species on record is Mus musculus. As to the kind of experiment: Induction of apoptosis in ConA-induced BALB/C Mus musculus (mouse) lymph node cells after 24 hr by AnnexinV-FITC based flow cytometric analysis. The class given is functional.
Series [7] deals with Phosphatidylinositol 4,5-bisphosphate 3-kinase catalytic subunit gamma isoform (Mus musculus) (UniProt Q9JHG7). As to the kind of experiment: Inhibition of PI3Kgamma-mediated AKT Ser473 phosphorylation in ConA-induced BALB/C Mus musculus (mouse) lymph node cells after 24 hr by Western blot analysis.
A short description of series [8]: Ratio of CsA CC50 to compound CC50 for BALB/C Mus musculus (mouse) lymph node cells. The class given is ADME.

Phosphatidylinositol 4,5-bisphosphate 3-kinase catalytic subunit gamma isoform, sequence (P48736 whole entry, canonical isoform): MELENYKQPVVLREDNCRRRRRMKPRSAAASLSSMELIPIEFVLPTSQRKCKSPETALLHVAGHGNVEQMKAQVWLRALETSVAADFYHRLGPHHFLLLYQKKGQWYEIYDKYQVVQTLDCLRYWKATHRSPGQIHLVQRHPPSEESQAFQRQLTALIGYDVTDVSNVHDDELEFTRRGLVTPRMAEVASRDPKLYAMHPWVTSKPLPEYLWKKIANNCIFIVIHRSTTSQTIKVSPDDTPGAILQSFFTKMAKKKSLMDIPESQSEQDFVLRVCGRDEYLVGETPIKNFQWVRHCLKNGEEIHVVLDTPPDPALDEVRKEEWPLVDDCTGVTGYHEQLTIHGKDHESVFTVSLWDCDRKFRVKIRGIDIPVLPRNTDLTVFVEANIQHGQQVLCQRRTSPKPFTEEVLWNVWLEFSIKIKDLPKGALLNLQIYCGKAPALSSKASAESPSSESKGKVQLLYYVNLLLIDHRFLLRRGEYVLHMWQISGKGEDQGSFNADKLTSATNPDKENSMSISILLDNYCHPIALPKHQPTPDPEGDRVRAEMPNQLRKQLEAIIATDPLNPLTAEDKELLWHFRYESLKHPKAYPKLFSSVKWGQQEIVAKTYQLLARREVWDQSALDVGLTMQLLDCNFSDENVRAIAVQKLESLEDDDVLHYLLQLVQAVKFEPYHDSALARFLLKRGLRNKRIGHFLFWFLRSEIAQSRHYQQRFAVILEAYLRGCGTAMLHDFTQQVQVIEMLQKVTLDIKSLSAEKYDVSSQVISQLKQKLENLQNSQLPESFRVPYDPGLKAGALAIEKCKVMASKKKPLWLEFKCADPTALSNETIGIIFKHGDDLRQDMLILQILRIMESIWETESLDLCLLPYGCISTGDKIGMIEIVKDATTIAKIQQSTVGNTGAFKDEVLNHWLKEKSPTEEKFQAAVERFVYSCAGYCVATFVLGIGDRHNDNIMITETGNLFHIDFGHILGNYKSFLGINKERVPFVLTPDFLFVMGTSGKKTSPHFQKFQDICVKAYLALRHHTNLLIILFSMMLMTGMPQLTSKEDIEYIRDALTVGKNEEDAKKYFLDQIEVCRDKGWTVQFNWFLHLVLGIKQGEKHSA
Phosphatidylinositol 4,5-bisphosphate 3-kinase catalytic subunit gamma isoform (Mus musculus), sequence (Q9JHG7 whole entry, looked up, canonical isoform): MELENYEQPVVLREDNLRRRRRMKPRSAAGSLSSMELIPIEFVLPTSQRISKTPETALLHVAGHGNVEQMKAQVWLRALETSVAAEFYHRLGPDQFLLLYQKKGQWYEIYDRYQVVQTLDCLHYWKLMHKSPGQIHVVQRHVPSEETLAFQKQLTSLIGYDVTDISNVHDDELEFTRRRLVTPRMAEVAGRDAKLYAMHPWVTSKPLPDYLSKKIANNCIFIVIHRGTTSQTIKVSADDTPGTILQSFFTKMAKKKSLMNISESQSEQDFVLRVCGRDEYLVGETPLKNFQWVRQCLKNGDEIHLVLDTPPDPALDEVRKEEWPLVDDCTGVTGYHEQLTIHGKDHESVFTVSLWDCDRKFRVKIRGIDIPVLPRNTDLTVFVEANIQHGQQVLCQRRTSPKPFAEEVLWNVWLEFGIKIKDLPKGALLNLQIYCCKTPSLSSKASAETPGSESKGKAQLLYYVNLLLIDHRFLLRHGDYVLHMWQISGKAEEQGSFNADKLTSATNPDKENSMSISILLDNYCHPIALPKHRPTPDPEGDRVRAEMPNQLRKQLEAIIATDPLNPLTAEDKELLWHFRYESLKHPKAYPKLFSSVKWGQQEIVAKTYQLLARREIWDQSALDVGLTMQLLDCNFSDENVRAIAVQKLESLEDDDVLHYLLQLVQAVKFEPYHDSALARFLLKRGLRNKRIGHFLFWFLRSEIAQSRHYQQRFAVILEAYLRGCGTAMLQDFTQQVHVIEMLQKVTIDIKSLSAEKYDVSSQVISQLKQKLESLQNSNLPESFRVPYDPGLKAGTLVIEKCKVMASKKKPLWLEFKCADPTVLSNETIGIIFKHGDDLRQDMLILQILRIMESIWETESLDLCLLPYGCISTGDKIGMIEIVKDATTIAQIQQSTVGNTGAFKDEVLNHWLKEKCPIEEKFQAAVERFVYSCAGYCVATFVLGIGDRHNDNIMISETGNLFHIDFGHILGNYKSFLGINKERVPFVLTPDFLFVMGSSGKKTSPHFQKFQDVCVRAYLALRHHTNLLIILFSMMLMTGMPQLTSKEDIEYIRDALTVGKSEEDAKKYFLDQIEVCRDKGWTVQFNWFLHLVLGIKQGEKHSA

Take `Cc1ccc(C(=O)N/N=C/c2cccc(Cl)c2)c(O)c1`: it took 636 µM to reach half-maximal cytotoxicity in series [1] (CC50 at 24 h). Also, in series [2], the “Ratio CC50/IC50” value was determined as 30.89. The IC50 (usually the point on the concentration scale where inhibition reaches its midpoint) in series [3] is 24.4 µM.
On the same counts, the results for `COc1ccc(/C=N/NC(=O)c2ccc(C)cc2O)cc1` are 723 µM, less than 7.23 and more than 100 µM.
On the same counts, the results for `Cc1ccc(C(=O)N/N=C/c2ccccc2Cl)c(O)c1` are 125 µM, 6.51 and 19.2 µM.
The corresponding values for `Cc1ccc(C(=O)N/N=C/c2ccccc2)c(O)c1` are 578 µM, 10.74 and 53.9 µM.
On to `Cc1ccc(C(=O)N/N=C/c2ccc(F)cc2)c(O)c1`, for which the midpoint of cytotoxicity in series [1], the CC50 at 24 h, lay at 568 µM. The “Ratio CC50/IC50” value in series [2] is 21.26. The IC50 in series [3] turned out to be 26.7 µM.
Take `Cc1ccc(C(=O)N/N=C/c2cc(Br)cc(Br)c2O)c(O)c1`: the 50% cytotoxic concentration (CC50) – broadly, the concentration at which the toxic effect on the cells reaches its halfway point – at 24 h in series [1] amounted to 979 µM. The IC50 in series [4] was determined as 7.12 µM; in series [3] it was 2.02 µM. Besides, the “Ratio CC50/IC50” value in series [2] came out at 484.63.
`Cc1ccc(C(=O)N/N=C/c2ccccc2O)c(O)c1`: the Activity result in the series listed under Mus musculus [5] and in the series filed under Mus musculus [6] was “Dose-dependent effect” each time. In series [1], this compound had a CC50 at 24 h of 761 µM. Further, the results for the IC50 in series [4] and in series [3] were 2.17 µM and 1.02 µM, respectively. Moreover, in series [2], the “Ratio CC50/IC50” value was determined as 745.65. Besides, the inhibition result in series [7] was “Dose-dependent effect”. Further, the selectivity ratio in series [8] worked out at 50.
In series [1], `Cc1ccc(C(=O)N/N=C/c2ccc(Cl)cc2)c(O)c1` showed a CC50 at 24 h of 116 µM. Also, the “Ratio CC50/IC50” value in series [2] was found to be 9.45. Further, in series [3], the IC50 was found to be 12.3 µM.
Consider `Cc1ccc(C(=O)N/N=C/c2ccc(N(C)C)cc2)c(O)c1`, for which the midpoint of cytotoxicity in series [1], the CC50 at 24 h, lay at 732 µM. The “Ratio CC50/IC50” value in series [2] is less than 7.32. In addition, the IC50 in series [3] was more than 100 µM.
On the same counts, the results for `Cc1ccc(C(=O)N/N=C/c2ccccc2F)c(O)c1` are 362 µM, 8.61 and 42.1 µM.
On the same counts, the results for `Cc1ccc(C(=O)N/N=C/c2ccc([N+](=O)[O-])cc2)c(O)c1` are 734 µM, 30.23 and 24.3 µM.
`Cc1ccc(C(=O)N/N=C/c2cc(Cl)ccc2O)c(O)c1` came in with a CC50 at 24 h in series [1] of 560 µM. For the same compound, the IC50 in series [4] amounted to 3.69 µM; in series [3], 1.29 µM. In addition, the “Ratio CC50/IC50” value in series [2] amounted to 433.84.
With `Cc1ccc(C(=O)N/N=C/c2cc(Br)ccc2O)c(O)c1`, the CC50 at 24 h in series [1] worked out at 1500 µM. Moreover, the results for the IC50 in series [4] and in series [3] were 2.6 µM and 1.09 µM, respectively. The “Ratio CC50/IC50” value in series [2] was 1371.95.
Turning to `Cc1ccc(C(=O)N/N=C/c2ccccc2[N+](=O)[O-])c(O)c1`, in series [1], the CC50 at 24 h stood at 644 µM. Moreover, in series [2], the “Ratio CC50/IC50” value is less than 6.44. For the same compound, the IC50 in series [3] was more than 100 µM.
The compound `Cc1ccc(C(=O)N/N=C/c2ccc(Cl)cc2Cl)c(O)c1` registered a CC50 at 24 h in series [1] of 291 µM. For the same compound, the “Ratio CC50/IC50” value in series [2] was found to be 29.79. Besides, the IC50 in series [3] came out at 9.78 µM.
The corresponding values for `Cc1ccc(C(=O)N/N=C/c2cccc(F)c2)c(O)c1` are 166 µM, 3.72 and 31.2 µM.
Regarding `Cc1ccc(C(=O)N/N=C/c2cc(Cl)cc(Cl)c2O)c(O)c1`, the Activity result in the series listed under Mus musculus [6] was “Dose-dependent effect”. Also, half-maximal cytotoxicity in series [1] (CC50 at 24 h) was put at 708 µM. The IC50 in series [4] came to 4.81 µM; in series [3] it was 1.51 µM. Moreover, in series [2], the “Ratio CC50/IC50” value is 468.72.
Consider `Cc1ccc(C(=O)N/N=C/c2cccc(Br)c2)c(O)c1`, for which, in series [1], the CC50 at 24 h worked out at 113 µM. Also, the “Ratio CC50/IC50” value in series [2] is 4.01. Besides, in series [3], the IC50 was determined as 28.3 µM.
On the same counts, the results for `COc1cccc(/C=N/NC(=O)c2ccc(C)cc2O)c1` are 672 µM, 32.64 and 20.6 µM.

These data come from ChEMBL document CHEMBL3044666, “Synthesis, biological evaluation and molecular modeling studies of Schiff bases derived from 4-methylsalicylic acid as potential immunosuppressive agents” (Med Chem Res, 2013).
